Measured values from PubChem BioAssay (NCI).
Where “and” joins values, the source holds several entries; their conditions need not be identical. Equal values may be shown once.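 48-hour exposure; five concentrations; linearly interpolated endpoints. At the GI50, growth is halved. Definition used: TGI = concentration required for complete inhibition of growth.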

Assays:
Assay in all cases: NCI-60 cell line screen, 48 h
HOP-18 NSCLC = test system: HOP-18 NSCLC
NCI/ADR-RES ovarian = test system: NCI/ADR-RES ovarian
HS 578T breast = test system: HS 578T breast
MDA-MB-435 = test system: MDA-MB-435
DMS 273 small cell lung = test system: DMS 273 small cell lung
SNB-78 CNS = test system: SNB-78 CNS
LXFL 529 NSCLC = test system: LXFL 529 NSCLC
RXF-631 renal = test system: RXF-631 renal
MDA-N = test system: MDA-N

Row | Compound | GI50 (HOP-18 NSCLC) | TGI (HOP-18 NSCLC) | GI50 (NCI/ADR-RES ovarian) | TGI (NCI/ADR-RES ovarian) | GI50 (HS 578T breast) | TGI (HS 578T breast) | GI50 (MDA-MB-435) | TGI (MDA-MB-435) | TGI (DMS 273 small cell lung) | TGI (SNB-78 CNS) | TGI (LXFL 529 NSCLC) | TGI (RXF-631 renal) | TGI (MDA-N)
1 | CC(=O)[CH-]C(=O)c1ccccc1.CC(=O)[CH-]C(=O)c1ccccc1.CC1(C)OCC(C2OC3OC(C)(C)OC3C2[O-])O1.CC[O-].[Ti+4] (configuration not stated) | 21.4 µM | 56.5 µM |  |  |  |  |  |  |  |  |  |  | 
2 | C/C1=C\CC[C@@](C)(O)[C@@H]2C[C@H](CC/C(C)=C/CC1)C1(CC1)C(=O)O2 |  |  | 28300 nM | > 100 µM | 22.1 µM | 60 µM | 16.5 µM | 35.1 µM |  |  |  |  | 
3 | Fc1ccc2nc(-c3cc(-c4ccc5c(c4)OCO5)n[nH]3)[nH]c2c1 |  |  | 3990 nM | > 100 µM | 9.53 µM | > 100 µM | 4.49 µM | > 71.7 µM |  |  |  |  | 
4 | Cc1cccc(C)c1N1C(=O)C(=O)C(c2nc3ccccc3s2)/C(=N/NC(=O)NN)C1=O (configuration not stated) |  | > 100 µM |  |  |  |  |  |  | > 100 µM | > 100 µM | > 100 µM |  | 
5 | COc1ccc(C2Oc3c(c(O)cc4c3[C@H](c3ccc(O)cc3O)[C@H](O)C(c3ccc(O)c(O)c3)O4)C[C@@H]2O)cc1O (some centres not stated) |  | > 100 µM |  |  |  |  |  |  | > 100 µM | > 100 µM | > 100 µM |  | 
6 | CCNCCNc1cc(-c2ccc(C#N)cc2)c(C#N)c2nc3ccccc3n12 |  |  | 5740 nM | 36 µM | 3.49 µM | 13.9 µM | 2.29 µM | 6.28 µM |  |  |  |  | 
7 | CCn1c(-c2nonc2N)nc2ccncc21 |  |  | > 25000 nM | > 25 µM | > 25 µM | > 25 µM | > 25 µM | > 25 µM |  |  |  |  | 
8 | Cc1c2ccncc2c(C)c2c1[nH]c1ccc(O)c(OCC(F)(F)F)c12 |  |  |  |  |  |  |  |  | 4.87 µM | 18.2 µM | 15.5 µM |  | 
9 | O=C1/C(=C/c2ccc([N+](=O)[O-])cc2)COc2ccc(O)cc21 |  |  | 16900 nM | > 100 µM | 3.54 µM | > 100 µM | 5.21 µM | 29.7 µM |  |  |  |  | 
10 | C=C1C2Oc3ccccc3C1N(c1ccccc1)O2 (configuration not stated) |  |  |  |  |  |  |  |  |  |  | > 100 µM | 45.6 µM | 
11 | O=C(/C=C/c1cccc(O)c1)c1cccc(-n2cc(-c3ccc4ccccc4c3)[nH]c2=O)c1 |  |  | 1550 nM | 5.83 µM | 2.01 µM | 5.9 µM | 1.71 µM | 6.31 µM |  |  |  |  | 
12 | CC(C)(C)NCC(COc1ccc([N+](=O)[O-])cc1)OP(c1ccccc1)c1ccccc1 (configuration not stated) |  |  |  |  |  |  |  |  | > 100 µM | > 100 µM | > 100 µM |  | 
13 | Nc1cc(-c2ccc(Cl)cc2)nn1-c1nnc(/C=C/c2ccco2)c(=O)[nH]1 |  |  | 1480 nM | 10.5 µM | 10.2 µM | > 64.3 µM | 5.9 µM | > 100 µM |  |  |  |  | 
14 | O=C(CC1(O)C(=O)Nc2c(Cl)ccc(Cl)c21)c1ccc(Cl)cc1Cl (configuration not stated) |  | > 100 µM |  |  |  |  |  |  | 37.8 µM | > 100 µM | 29.3 µM |  | 
15 | O=C(c1cccs1)C1NO[N+]([O-])=C1c1cccs1 (configuration not stated) |  |  | 3420 nM | 18.9 µM | 2.82 µM | 14.6 µM | 5.29 µM | 16.3 µM |  |  |  |  | 
16 | COc1ccccc1NC(=O)/C(=C/c1ccccc1)C(C)=O |  | > 100 µM |  |  |  |  |  |  |  | 44.6 µM | > 100 µM |  | 

Row | Compound | GI50 (HOP-18 NSCLC) | TGI (HOP-18 NSCLC) | GI50 (NCI/ADR-RES ovarian) | TGI (NCI/ADR-RES ovarian) | GI50 (HS 578T breast) | TGI (HS 578T breast) | GI50 (MDA-MB-435) | TGI (MDA-MB-435) | TGI (DMS 273 small cell lung) | TGI (SNB-78 CNS) | TGI (LXFL 529 NSCLC) | TGI (RXF-631 renal) | TGI (MDA-N)
17 | C=CC1=C(C)C2=NC1=CC1=NC(=CC3=C(C)C4=C(O)[C@H](C(=O)OC)C(=C5NC(=C2)[C@@H](C)[C@@H]5CCC(=O)O)C4=N3)C(CC)=C1C |  |  |  | > 22.1 µM |  | > 100 µM |  | > 46.5 µM |  |  |  |  | > 100 µM
18 | CC(C)(C)c1ccc(OC2CCO2)cc1 (configuration not stated) |  | > 100 µM |  |  |  |  |  |  | > 100 µM | > 100 µM | > 100 µM |  | 
19 | COc1cccc2c(=O)c3c(sc12)c(NCCCNCCO)nc1ccccc13 |  |  | 1810 nM | 3.94 µM | 1.65 µM | 4.07 µM | 1.72 µM | 3.2 µM |  |  |  |  | 
20 | Cc1cc(C)n(C2=NS(=O)(=O)c3ccccc3N2C)n1 |  |  |  | > 100 µM |  | > 100 µM |  | > 100 µM |  |  |  |  | > 100 µM
21 | Cc1c(C)c(CC(=O)N2CC2)c(C)c(C)c1CC(=O)N1CC1 |  | 75.3 µM |  | 74.4 µM |  | 81.9 µM |  | 33.6 µM | 13.2 µM | 57.3 µM | 37.9 µM |  | 34.2 µM
22 | CCOC(=O)N1CCN(CCCCCOc2ccccc2C2CCCCC2)CC1 |  |  | 2050 nM | 5.66 µM | 12.8 µM | 34.8 µM | 3.88 µM | 15.1 µM |  |  |  |  | 
23 | Cc1cc2c(cc1Cl)S/C(=C/C(=O)O)C(Nc1cccc3nsnc13)=NS2(=O)=O |  |  | > 40200 nM | > 58.9 µM | 30.5 µM | > 60.7 µM | 56.2 µM | > 71 µM |  |  |  |  | 
24 | CCOc1ccc(Nc2c3ccccc3nc3ccccc23)cc1 |  |  | 271 nM and 117 nM | 0.588 µM | 1.23 µM and 0.29 µM |  | 0.0382 µM and 0.0574 µM | 0.359 µM and 0.279 µM |  |  |  |  | 
25 | COc1ccc(C(=O)c2nc3ccccc3n2CC(=O)c2ccc(Cl)cc2)cc1 |  |  | 1200 nM | > 21.3 µM | 2.49 µM | 12.4 µM | 0.336 µM | 1.79 µM |  |  |  |  | 
26 | C=CCNC(=O)N(CCC)CCCC(NC(C)=O)C(=O)NCc1ccccc1 (configuration not stated) |  | > 100 µM |  |  |  |  |  |  | > 100 µM |  | > 100 µM | > 100 µM | 
27 | COc1cccc(COc2cc(-n3cnc4ccccc43)sc2C(N)=O)c1 |  |  | 1750 nM | > 25 µM | > 17.7 µM | > 25 µM | 1.3 µM | > 25 µM |  |  |  |  | 
28 | Cc1ccc(NC(=O)/C(Cc2cc(=O)oc3cc(O)ccc23)=N\NC(=O)C[N+](C)(C)C)cc1C |  |  |  | > 100 µM |  | > 100 µM |  | > 100 µM |  |  |  |  | > 100 µM
29 | Cc1ccc(-n2nc(C(C)(C)C)cc2NC(=O)NCc2cc(F)ccc2Oc2ccc3c(cnn3CCO)c2)cc1 |  |  | > 10000 nM and 7500 nM | > 100 µM | > 10 µM and 10.1 µM | > 100 µM | 3.37 µM and 2.75 µM | > 62.5 µM |  |  |  |  | 
30 | CCCCCCCCCCCC1CC(=O)NCCCN(C)CCCCN(C)CCCN1C (configuration not stated) |  | 3.17 µM |  |  |  |  |  |  | 2.61 µM | 3.27 µM | 3.16 µM |  | 
31 | COC(=O)c1ccc2c(c1)C(=O)c1c-2n(CCCN=[N+]=[N-])c(=O)c2cc([N+](=O)[O-])ccc12 |  |  | > 100000 nM | > 100 µM | 42.6 µM | > 100 µM | > 100 µM | > 100 µM |  |  |  |  | 
